Measured values reported in US20130040036A1, “Shelf Stable, Low Water Liquid Beverage Concentrates And Methods Of Making The Same” (priority 2011, published 2013).

Experiment: Solubility of sucralose in non-aqueous liquids
Assay type: physicochemical
Details: 1,3-propanediol vs propylene glycol
Source text: Therefore, beverage concentrates containing sucralose may be advantageously prepared using a solvent comprising 1,3-propanediol to provide a beverage concentrate that is able to maintain sucralose in solution throughout its shelf life. In other instances, selection of NAL may also depend, at least in part, on the flavor provided by the NAL and the desired taste profile in the final beverage. In yet other instances, selection of NAL may also depend, at least in part, on the viscosity and/or the desired density of the resulting concentrate.

OC[C@H]1O[C@H](O[C@]2(CCl)O[C@H](CCl)[C@@H](O)[C@@H]2O)[C@H](O)[C@@H](O)[C@H]1Cl [sucralose]
solubility in non-aqueous liquid: more readily solubilized in 1,3-propanediol than in propylene glycol
